As a reminder, the IC50 is the point on the concentration scale where inhibition reaches its midpoint.

Consider 35 molecules from patent US10233173B2, “Substituted 1,2,3-triazoles as NR2B-selective NMDA modulators” (JANSSEN PHARMACEUTICA NV, priority 2016, dated 2019).

The structures appear in SMILES notation.

human GluN1/GluN2B NMDA receptors, sequence (Q13224 27-1484, other chains not shown): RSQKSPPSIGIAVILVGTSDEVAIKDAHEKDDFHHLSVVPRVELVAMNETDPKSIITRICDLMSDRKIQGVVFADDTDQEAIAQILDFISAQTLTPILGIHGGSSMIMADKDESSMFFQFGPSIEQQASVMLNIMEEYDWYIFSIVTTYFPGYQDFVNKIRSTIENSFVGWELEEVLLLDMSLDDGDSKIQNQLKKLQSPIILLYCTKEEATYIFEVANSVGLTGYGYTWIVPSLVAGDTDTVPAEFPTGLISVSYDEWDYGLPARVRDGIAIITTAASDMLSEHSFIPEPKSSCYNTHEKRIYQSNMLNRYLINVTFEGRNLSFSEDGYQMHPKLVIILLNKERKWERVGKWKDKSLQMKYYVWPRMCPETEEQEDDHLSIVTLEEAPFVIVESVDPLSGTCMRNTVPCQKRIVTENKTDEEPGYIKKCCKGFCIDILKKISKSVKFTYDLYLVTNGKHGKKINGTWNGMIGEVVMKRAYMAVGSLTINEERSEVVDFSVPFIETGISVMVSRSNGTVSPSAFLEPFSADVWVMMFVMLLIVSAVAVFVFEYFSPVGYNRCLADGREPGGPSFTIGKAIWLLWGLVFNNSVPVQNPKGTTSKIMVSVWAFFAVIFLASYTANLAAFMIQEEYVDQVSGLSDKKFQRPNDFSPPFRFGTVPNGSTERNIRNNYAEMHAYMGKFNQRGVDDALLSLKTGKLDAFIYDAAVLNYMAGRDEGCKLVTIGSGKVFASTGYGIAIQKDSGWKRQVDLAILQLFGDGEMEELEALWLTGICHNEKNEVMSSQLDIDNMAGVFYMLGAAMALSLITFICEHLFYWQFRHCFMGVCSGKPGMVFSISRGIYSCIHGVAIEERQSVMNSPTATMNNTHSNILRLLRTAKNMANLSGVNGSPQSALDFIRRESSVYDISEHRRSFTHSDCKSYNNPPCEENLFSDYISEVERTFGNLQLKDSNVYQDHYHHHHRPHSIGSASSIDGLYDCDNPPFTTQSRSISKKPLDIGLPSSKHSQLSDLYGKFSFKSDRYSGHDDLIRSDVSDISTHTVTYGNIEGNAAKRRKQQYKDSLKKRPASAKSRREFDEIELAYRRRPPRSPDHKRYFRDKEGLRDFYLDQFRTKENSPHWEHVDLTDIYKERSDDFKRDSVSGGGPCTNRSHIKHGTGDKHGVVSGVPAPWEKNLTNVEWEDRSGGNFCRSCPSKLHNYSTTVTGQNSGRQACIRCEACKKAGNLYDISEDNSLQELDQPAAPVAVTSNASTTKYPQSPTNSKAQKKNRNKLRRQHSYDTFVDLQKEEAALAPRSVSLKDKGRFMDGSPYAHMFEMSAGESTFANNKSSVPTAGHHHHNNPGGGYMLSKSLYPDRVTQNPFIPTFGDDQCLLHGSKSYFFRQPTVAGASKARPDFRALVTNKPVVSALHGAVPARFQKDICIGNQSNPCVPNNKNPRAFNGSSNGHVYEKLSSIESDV

The target in one assay is human GluN1/GluN2B NMDA receptors (Homo sapiens, UniProt Q05586+Q13224). Description: Cell-based calcium flux (FLIPR) assay on cloned human NR1/NR2B ion channels expressed in mammalian cells. To be noted: standard assay; glutamate at ~EC80; FLIPR calcium flux. The method, then:
Effects of Test Articles on Cloned Human NR1/NR2B Ion Channels Expressed in Mammalian Cells
NMDA receptors are ion channels that are highly permeable to Ca^2+ ions, rendering it possible to monitor NMDA receptor function using cell-based calcium flux assay. In this assay, co-agonists glutamate and glycine are added to cells heterologously expressing human GluN1/GluN2B NMDA receptors to initiate cellular Ca^2+ influx. The time course of the changes in intracellular calcium is measured using a fluorescent dye and a FLIPR (Fluorometric Imaging Plate Reader) device.
Twenty four hours before measurements, the expression of the NMDA receptors in the stable cell line is induced with Tet-On inducible system in the presence of a non-selective NMDA receptor blocker. On the day of the experiment, cell culture media is carefully washed and the cells are loaded with Calcium 5 Dye Kit (Molecular Devices) in dye loading buffer containing 149 mM NaCl, 4 mM KCl, 2 mM CaCl2, and 1.5 mM MgCl2, 10 mM HEPES and 5 mM D-glucose; pH 7.4. After 1 h incubation at the room temperature, the dye is washed away with the assay buffer (149 mM NaCl (standard assay) or 150 mM (HTS assay), 4 mM KCl (standard assay) or 3 mM (HTS assay), 2 mM CaCl2, 0.01 mM EDTA, 10 mM HEPES and 5 mM D-glucose; pH 7.4) In the FLIPR TETRA reader, various concentrations of the test compounds are added to the cells for 5 min while fluorescence is monitored to detect potential agonist activity. Next, co-agonists, glutamate and glycine are added for another 5 minutes. The concentration of glutamate corresponding to ˜EC80 (standard assay) or EC40 (HTS assay) is used to maximize the assay's signal window or the ability to detect NMDA receptor antagonists and negative allosteric modulators, respectively. A saturating concentration (10 μM) of glycine is also present in the assay. […] The fluorescent signal in the presence of test compounds is quantified and normalized to the signal defined by the appropriate control wells.
(In general: Calcium flux is commonly read through the fluorescence of an indicator in the cells.)
`Cc1cc(-n2cc(COc3ncc(Cl)c(C)n3)nn2)c(F)cc1F` [Example 657, 5-Chloro-2-[[1-(2,4-difluoro-5-methyl-phenyl)triazol-4-yl]methoxy]-4-methyl-pyrimidine]: the IC50 was 0.781 µM.

`Cc1cccc(OCc2cn(-c3ccc(F)c(C(C)(F)F)c3)nn2)n1` [Example 556, 2-[[1-[3-(1,1-Difluoroethyl)-4-fluoro-phenyl]triazol-4-yl]methoxy]-6-methyl-pyridine]: the IC50 turned out to be 0.098 µM.

`CC(C)(O)c1cnc(OCc2cn(-c3cccc(F)c3F)nn2)nc1` [Example 608, 2-[2-[[1-(2,3-Difluorophenyl)triazol-4-yl]methoxy]pyrimidin-5-yl]propan-2-ol]: the IC50 was more than 10 µM.

In the case of `CC(F)(F)c1cc(-n2cc(COc3ncc(C(F)F)cn3)nn2)ccc1Cl` [Example 535, 2-[[1-[4-Chloro-3-(1,1-difluoroethyl)phenyl]triazol-4-yl]methoxy]-5-(difluoromethyl)pyrimidine], the IC50 stood at 0.009 µM.

For the molecule `Fc1ccc(-n2cc(COc3ncc(C4CC4)cn3)nn2)cc1C(F)(F)F` [Example 453, 5-Cyclopropyl-2-[[1-[4-fluoro-3-(trifluoromethyl)phenyl]triazol-4-yl]methoxy]pyrimidine], the IC50 was 0.022 µM.

In the case of `Cc1cnc(OCc2cn(-c3ccnc(C(F)(F)F)c3)nn2)nc1` [Example 666, 5-Methyl-2-[[1-[2-(trifluoromethyl)-4-pyridyl]triazol-4-yl]methoxy]pyrimidine], the half-maximal inhibitory concentration (IC50) amounted to 0.668 µM.

`Fc1cnc(OCc2cn(-c3cccc(F)c3F)nn2)nc1` [Example 606, 2-[[1-(2,3-Difluorophenyl)triazol-4-yl]methoxy]-5-fluoro-pyrimidine]: the IC50 turned out to be 17.5 µM.

In the case of `CC(O)c1cnc(OCc2cn(-c3ccc(Cl)c(C(C)(F)F)c3)nn2)nc1` (racemic) [Example 551, (R/S)-1-[2-[[1-[4-Chloro-3-(1,1-difluoroethyl)phenyl]triazol-4-yl]methoxy]pyrimidin-5-yl]ethanol], the 50% inhibitory concentration (IC50) stood at 0.014 µM.

Take `Fc1ccc(-n2cc(COc3ccc(C(F)(F)F)cn3)nn2)cc1C(F)(F)F` [Example 432, 2-[[1-[4-Fluoro-3-(trifluoromethyl)phenyl]triazol-4-yl]methoxy]-5-(trifluoromethyl)pyridine]: the half-inhibitory concentration (IC50) came to 0.528 µM.

In the case of `Fc1ccc(-n2cc(COc3nccc(-c4ccco4)n3)nn2)cc1C(F)F` [Example 424, 2-[[1-[3-(Difluoromethyl)-4-fluoro-phenyl]triazol-4-yl]methoxy]-4-(2-furyl)pyrimidine], the IC50 is 0.141 µM.

Take `Cc1nc(OCc2cn(-c3ccc(Cl)c(C(C)(F)F)c3)nn2)ncc1F` [Example 544, 2-[[1-[4-Chloro-3-(1,1-difluoroethyl)phenyl]triazol-4-yl]methoxy]-5-fluoro-4-methyl-pyrimidine]: the IC50 turned out to be 0.015 µM.

For the molecule `CC(F)(F)c1cc(-n2cc(COc3ncc(OC(F)F)cn3)nn2)ccc1Cl` [Example 542, 2-[[1-[4-Chloro-3-(1,1-difluoroethyl)phenyl]triazol-4-yl]methoxy]-5-(difluoromethoxy)pyrimidine], the IC50 is 0.012 µM.

As for `CC(F)(F)c1cc(-n2cc(COc3nccc(C(F)F)n3)nn2)ccc1Cl` [Example 536, 2-[[1-[4-Chloro-3-(1,1-difluoroethyl)phenyl]triazol-4-yl]methoxy]-4-(difluoromethyl)pyrimidine], the IC50 is 0.067 µM.

Take `Cc1cnc(OCc2cn(-c3ccc(F)c(OC(F)F)c3)nn2)nc1N(C)C` [Example 516, 2-[[1-[3-(Difluoromethoxy)-4-fluoro-phenyl]triazol-4-yl]methoxy]-N,N,5-trimethyl-pyrimidin-4-amine]: the half-inhibitory concentration (IC50) came out at 0.017 µM.

Regarding `Cc1cccc(-n2cc(COc3ncc(Cl)cn3)nn2)n1` [Example 659, 5-Chloro-2-[[1-(6-methyl-2-pyridyl)triazol-4-yl]methoxy]pyrimidine], the IC50 is more than 2.99 µM.

Turning to `Cc1c(F)ccc(-n2cc(COc3ncc(C(C)(C)O)cn3)nn2)c1F` [Example 644, 2-[2-[[1-(2,4-Difluoro-3-methyl-phenyl)triazol-4-yl]methoxy]pyrimidin-5-yl]propan-2-ol], the IC50 was found to be 0.967 µM.

In the case of `Fc1cccc(-n2cc(COc3ncc(Cl)cn3)nn2)c1F` [Example 605, 5-Chloro-2-[[1-(2,3-difluorophenyl)triazol-4-yl]methoxy]pyrimidine], the IC50 is 4.36 µM.

Regarding `Fc1ccc(-n2cc(COc3cnccn3)nn2)cc1C(F)(F)F` [Example 434, 2-[[1-[4-Fluoro-3-(trifluoromethyl)phenyl]triazol-4-yl]methoxy]pyrazine], the IC50 worked out at 6.39 µM.

As to `Fc1ccc(-n2cc(COc3ncc(N4CC(F)C4)cn3)nn2)cc1C(F)(F)F` [Example 455, 2-((1-(4-Fluoro-3-(trifluoromethyl)phenyl)-1H-1,2,3-triazol-4-yl)methoxy)-5-(3-fluoroazetidin-1-yl)pyrimidine], the IC50 was determined as 0.034 µM.

On to `COCc1ccnc(OCc2cn(-c3ccc(Cl)c(C(F)F)c3)nn2)n1` [Example 627, 2-[[1-[4-Chloro-3-(difluoromethyl)phenyl]triazol-4-yl]methoxy]-4-(methoxymethyl)pyrimidine], for which the IC50 turned out to be 0.038 µM.

Staying with this assay, now noted: standard assay; human GluN1/GluN2B, calcium flux (FLIPR), glutamate ~EC80.
For `CNc1ccnc(OCc2cn(-c3cccc(C(C)(F)F)c3)nn2)n1` [Example 317, 2-[[1-[3-(1,1-Difluoroethyl)phenyl]triazol-4-yl]methoxy]-N-methyl-pyrimidin-4-amine], the concentration for half-maximal inhibition (IC50) stood at 0.026 µM.

As for `CC(C)(O)c1cnc(OCc2cn(-c3cccc(C(C)(F)F)c3)nn2)nc1` [Example 301, 2-[2-[[1-[3-(1,1-Difluoroethyl)phenyl]triazol-4-yl]methoxy]pyrimidin-5-yl]propan-2-ol], the IC50 was 0.119 µM.

In the case of `CC(C)(O)c1cnc(NCc2cn(-c3ccc(F)c(C(F)F)c3)nn2)nc1` [Example 214, 2-[2-[[1-[3-(Difluoromethyl)-4-fluoro-phenyl]triazol-4-yl]methylamino]pyrimidin-5-yl]propan-2-ol], the IC50 is 0.654 µM.

As for `COc1ncccc1OCc1cn(-c2ccc(Cl)c(OC(F)F)c2)nn1` [Example 103, 3-[[1-[4-Chloro-3-(difluoromethoxy)phenyl]triazol-4-yl]methoxy]-2-methoxy-pyridine], the IC50 stood at 0.064 µM.

As to `Fc1ccc(-n2cc(COc3ccc(Cl)cn3)nn2)cc1C(F)F` [Example 112, 5-Chloro-2-[[1-[3-(difluoromethyl)-4-fluoro-phenyl]triazol-4-yl]methoxy]pyridine], the half-maximal inhibitory concentration (IC50) came out at 0.056 µM.

Regarding `Cc1cc(C)cc(-n2cc(COc3ncc(Cl)cn3)nn2)c1` [Example 363, 5-Chloro-2-[[1-(3,5-dimethylphenyl)triazol-4-yl]methoxy]pyrimidine], the half-maximal inhibitory concentration (IC50) is 0.118 µM.

In the case of `FC(F)(F)Oc1cccc(-n2cc(COc3ncc(Cl)cn3)nn2)c1` [Example 350, 5-Chloro-2-[[1-[3-(trifluoromethoxy)phenyl]triazol-4-yl]methoxy]pyrimidine], the IC50 turned out to be 0.05 µM.

On to `Cc1nc(OCc2cn(-c3cccc(C(C)(F)F)c3)nn2)ncc1F` [Example 313, 2-[[1-[3-(1,1-Difluoroethyl)phenyl]triazol-4-yl]methoxy]-5-fluoro-4-methyl-pyrimidine], for which the IC50 worked out at 0.005 µM.

Turning to `CCc1cnc(OCc2cn(-c3ccccc3C)nn2)nc1` [Example 241, 5-Ethyl-2-[[1-(o-tolyl)triazol-4-yl]methoxy]pyrimidine], the IC50 is 1.46 µM.

For `COCc1ccnc(OCc2cn(-c3ccc(Cl)c(OC(F)F)c3)nn2)n1` [Example 384, 2-[[1-[4-Chloro-3-(difluoromethoxy)phenyl]triazol-4-yl]methoxy]-4-(methoxymethyl)pyrimidine], the IC50 is 0.018 µM.

Turning to `FC(F)Oc1cc(-n2cc(COc3ncc(C(F)F)cn3)nn2)ccc1Cl` [Example 96, 2-[[1-[4-Chloro-3-(difluoromethoxy)phenyl]triazol-4-yl]methoxy]-5-(difluoromethyl)pyrimidine], the IC50 amounted to 0.008 µM.

On to `CCc1cnc(OCc2cn(-c3cccc(F)c3)nn2)nc1` [Example 233, 5-Ethyl-2-[[1-(3-fluorophenyl)triazol-4-yl]methoxy]pyrimidine], for which the IC50 is 0.075 µM.

In the case of `Cc1ccnc(OCc2cn(-c3ccc(F)c(C(F)F)c3)nn2)c1` [Example 115, 2-[[1-[3-(Difluoromethyl)-4-fluoro-phenyl]triazol-4-yl]methoxy]-4-methyl-pyridine], the IC50 amounted to 0.17 µM.

As for `FC(F)(F)Oc1ccc(-n2cc(COc3ncc(Cl)cn3)nn2)cc1` [Example 338, 5-Chloro-2-[[1-[4-(trifluoromethoxy)phenyl]triazol-4-yl]methoxy]pyrimidine], the IC50 was found to be 9.05 µM.

For the molecule `Cc1ccnc(OCc2cn(-c3ccc(F)c(Br)c3)nn2)n1` [Example 17, 2-[[1-(3-Bromo-4-fluoro-phenyl)triazol-4-yl]methoxy]-4-methylpyrimidine], the half-maximal inhibitory concentration (IC50) was determined as 0.01 µM.
